Data as given in patent US20250312468A1, “ANTI-PROTAC ANTIBODIES AND COMPLEXES” (Merck Patent GmbH, priority 2021, published 2025).

Key:
MIC2 = test: SPR binding of PROTACs to immobilized antibody MIC2; settings: MIC2, 1:1 kinetic binding model
Procedure: (§1) The binding affinities of hit antibodies MIC1 and MIC2 to a diverse set of VH032-based PROTACs (FIGS. 8A-8B) was determined by surface plasmon resonance (SPR) in a Biacore T200 instrument. The running buffer consist of PBS, 0.05% Tween-20, 2% DMSO and temperature and flow rate were set to 30° C. and 30 μL/min, respectively. The assay setup is depicted exemplarily in FIG. 7A. CM5 sensor chips were coated with antibody (=ligand; 2500 RU) using standard EDC/NHS chemistry. PROTACs (=analytes) were serially diluted (1 μM-1.9 nM) in running buffer, injected to the instrument in consecutive runs and were captured by the antibody resulting in an increase of the corresponding SPR response. After the association step (300 s), running buffer was injected for 600 s and the PROTAC dissociated from the antibody leading to signal decrease. After each run, residual bound PROTAC was removed from the immobilized antibody by injection of 10 mM glycine/HCl, pH 1.5 for 2×30 s regenerating the antibody for the next association and dissociation cycle. To compensate for matrix effects, the measured SPR response signal was subtracted by the analyte response to an inactivated (EDC/NHS, ethanol amine) reference surface omitting the ligand. Furthermore, a DMSO solvent correction was performed and analyte response was subtracted by the running buffer signal. The corrected response was fitted by a 1:1 kinetic binding model yielding the on- (kon) and off-rate (koff) of the PROTAC, as well as its dissociation constant (KD).

CD33xMIC11 = test: SPR affinity of VHH clone (antibody fusion) to PROTACs; settings: CD33xMIC11 immobilized, 25° C., read-out: KD [M] for antibody binding to PROTAC
Procedure: (§2) The kinetic and affinity parameters of protein-PROTAC interactions were evaluated by SPR. The anti-PROTAC VHH clones MIC5-MIC14 were immobilized as CD33 or CLL1 antibody fusion (the manufacturing of fusion proteins and the used linker is described in chapter 7.9) onto a CM5 (Series S) sensor chip via the standard amine coupling procedure, at 25° C. Prior to immobilization, the carboxymethylated surface of the chip was activated with 400 mM 1-ethyl-3-(3-dimethylaminopropyl)-carbodiimide and 100 mM N-hydroxysuccinimide for 7 min. Hit anti-PROTAC VHH as CD33 and CLL1 antibody fusions were diluted to 10 μg/ml in 10 mM Acetate at pH 4.5 and immobilized on the activated surface chip for 7 min, in order to reach 3,000 to 6,000 response units (RU). The remaining activated carboxymethylated groups were blocked with a 10 min injection of 1 M ethanolamine pH 8. HBS-N, which consists of 10 mM HEPES pH 7.4 and 150 mM NaCl, was used as the background buffer during immobilization. PROTACs were prediluted in DMSO, diluted 1:50 in running buffer (12 mM phosphate pH 7.4, 137 mM NaCl, 2.7 mM KCl, 0.05% Tween20, 2% DMSO) and injected at ten different concentrations using two-fold dilution series, from 1 μM to 0.002 μM. A DMSO solvent correction (1%-3%) was performed to account for variations in bulk signal and to achieve high-quality data. Interaction analysis cycles consisted of a 300 sec sample injection (30 μL/min; association phase) followed by 900 sec of buffer flow (dissociation phase).
(§3) All sensorgrams were processed by first subtracting the binding response recorded from the control surface (reference flow-channel), followed by subtracting of the buffer blank injection from the active flow-channel (target protein immobilized). All datasets were fit to a simple 1:1 Langmuir interaction model to determine the kinetic rate constants. Experiments were performed on a Biacore 8k+ (Cytiva, Uppsala, Sweden) at 25° C. and the interactions were evaluated using the provided Biacore Insight Evaluation software.

CD33xMIC10 = test: as above; settings: CD33xMIC10 immobilized, 25° C., read-out: KD [M] for antibody binding to PROTAC
Procedure: as §2, §3

CD33xMIC6 = test: as above; settings: CD33xMIC6 immobilized, 25° C., read-out: KD [M] for antibody binding to PROTAC
Procedure: as §2, §3

CD33xMIC13 = test: as above; settings: CD33xMIC13 immobilized, 25° C., read-out: KD [M] for antibody binding to PROTAC
Procedure: as §2, §3

CD33xMIC14 = test: as above; settings: CD33xMIC14 immobilized, 25° C., read-out: KD [M] for antibody binding to PROTAC
Procedure: as §2, §3

CD33xMIC5 = test: as above; settings: CD33xMIC5 immobilized, 25° C., read-out: KD [M] for antibody binding to PROTAC
Procedure: as §2, §3

CD33xMIC8 = test: as above; settings: CD33xMIC8 immobilized, 25° C., read-out: KD [M] for antibody binding to PROTAC
Procedure: as §2, §3

CD33xMIC9 = test: as above; settings: CD33xMIC9 immobilized, 25° C., read-out: KD [M] for antibody binding to PROTAC
Procedure: as §2, §3

CD33xMIC12 = test: as above; settings: CD33xMIC12 immobilized, 25° C., read-out: KD [M] for antibody binding to PROTAC
Procedure: as §2, §3

CD33xMIC7 = test: as above; settings: CD33xMIC7 immobilized, 25° C., read-out: KD [M] for antibody binding to PROTAC
Procedure: as §2, §3

MIC1 = test: SPR binding of PROTACs to immobilized antibody MIC1; settings: binding of PROTACs to MIC1, steady-state model
Procedure: as §1, with “The corrected response was fitted by a 1:1 kinetic binding model yielding the on- (kon) and off-rate (koff) of the PROTAC, as well as its dissociation constant (KD).” left out

[1] = PK study of CD33-based VHH fusions and PAX in C57BL/6N mice; type: in vivo, mouse; settings: analyte tAntibody, 30 mg/kg i.v., mean
Procedure: Additionally, the PAX CD33xMIC5+GNE987 and CD33xMIC7+GNE987 were generated with a theoretical loading of 100% and investigated in PK studies conducted in C57BL/6N inbred mice (N=2 males and females for each group) provided by Charles River Laboratories Italia, Calco, Italy. The 7-8-week-old mice received 30 mg/kg (corresponding to 0.38 mg/kg PROTAC) of CD33xMIC5+GNE987 and CD33xMIC7+GNE987, CD33 antibody alone, CD33xMIC5 or CD33xMIC7 as single dose, that was intravenously injected into the tail vein. Samples have been serially collected from all animals using a microsampling technique ([…] for each blood withdrawal). After administration, two blood samples were taken on the first day and 7 during the three weeks later. Each sample was collected in pre-chilled (0-4° C.) Minivette POCT EDTA tube, transferred in Microvette CB300 EDTA and centrifuged at 2500×g for 10 min at 4° C. The obtained plasma was transferred into a new vial and immediately stored at −80° C. until further analyses. The PK study, animal handling and experimentation, was conducted in accordance with the Italian D.Lvo. 2014/26 and Directive 2010/63/EU. The study was performed at the Instituto di Ricerche Biomediche Antoine Marxer, Colleretto Giacosa, Italy. The institute is fully authorized by the Italian Ministry of Health.
The total antibody concentration was determined by ligand binding assay (LBA) based on the Meso Scale Diagnostics technology (MSD, LLC., Rockville, MD). All incubation steps were performed at 22° C. with gentle agitation. All washing steps (200 μL/well) were performed with PBS-T, containing PBS pH 7.4 and 0.01% Tween 20, using the plate washer ELx405 (BioTek instruments Inc., Winooski, VT). First, 2.5 μg/mL biotin-SP-conjugated AffiniPure goat anti-human IgG, Fcγ fragment specific (Jackson ImmunoResearch Europe Ltd., JIR, Cambridgeshire, United Kingdom, #109-065-098) was coated on MSD GOLD 96-well Streptavidin QUICKPLEX Plates (MSD, #L55SA) for 2 h. Afterwards, plates were washed three times. Plasma samples, standards and quality controls were serially diluted in dilution buffer, consisting of PBS pH 7.4, 0.05% Tween 20 and 3.0% (w/v) BSA, and incubated on the plates for 1 h. The plates were washed again and incubated for 1 h with 0.6 μg/ml mouse anti-human IgG, F(ab′)2 fragment specific (JIR, #209-005-097), previously labeled with MSD GOLG SULFO-TAG (MSD, #R31AA-1) according to the manufacturing procedure. After a final washing step, 150 μL of 2×MSD Read Buffer T with surfactant (MSD, #R92TC) was added to each well and plates were read on a MESO Quickplex SQ120 plate reader (MSD). The Software Watson LIMS (Version 7.5, ThermoFisher Scientific Inc.) was used to fit the standard curve with a 5PL (Marquart) equations, weighting factor 1/Y2, and to calculate the total mAb concentration of the plasma samples. The lower limit of quantification (LLOQ) was 50 ng/ml. The concentration of MSC2734242 was determined by liquid chromatography tandem mass spectrometry (LC-MS/MS) using a SCIEX 5500 triple quadrupole with Turbo Ion Spray source (ITS) in positive modality (SCIEX, Redwood City, CA, USA). Chromatographic separation was achieved using a Waters ACQUITY UPLC BEH (C18, 2.1×50 mm, 1.7 μm) column, mounted in a Waters ACQUITY I-class UPLC system (Milford, MA, USA), configured with a 100 μL extension loop. […]

Molecule: Cc1ncsc1-c1ccc(CNC(=O)[C@@H]2C[C@@H](O)CN2C(=O)[C@@H](NC(=O)C2(F)CC2)C(C)(C)C)c(OCCOc2ccc(CN3CCN(c4cc(-c5ccccc5O)nnc4N)CC3)cc2)c1 [ACBI1]
- Kd (MIC2): > 1000 nM
- Kd (CD33xMIC11): 0.00011 M
- Kd (CD33xMIC10): 8.5e-06 M
- Kd (CD33xMIC6): 6.5e-06 M
- Kd (CD33xMIC13): 9.3e-05 M
- Kd (CD33xMIC14): 9.3e-07 M
- Kd (CD33xMIC5): 2.5e-06 M

Molecule: CC(=O)N[C@H](C(=O)N1C[C@H](O)C[C@H]1C(=O)NCc1ccc(-c2scnc2C)cc1)C(C)(C)SCCCCCCNC(=O)C[C@@H]1N=C(c2ccc(Cl)cc2)c2c(sc(C)c2C)-n2c(C)nnc21 [AT1]
- Kd (MIC2): 6 nM
- koff (MIC2): NM/1.90E−03 1/s
- kon (MIC2): NM/3.10E+05 1/Ms
- Kd (CD33xMIC11): 1.9e-10 M
- Kd (CD33xMIC8): 5.2e-09 M
- Kd (CD33xMIC10): 2.4e-09 M
- Kd (CD33xMIC6): 7.3e-09 M
- Kd (CD33xMIC13): 1.7e-09 M
- Kd (CD33xMIC9): 1.4e-09 M
- Kd (CD33xMIC14): 2.9e-09 M
- Kd (CD33xMIC12): 1.7e-09 M
- Kd (CD33xMIC5): 2.4e-09 M
- Kd (CD33xMIC7): 2.1e-09 M

Molecule: Cc1ncsc1-c1ccc(CNC(=O)[C@@H]2C[C@@H](O)CN2C(=O)[C@@H](NC(=O)COCCOCCOCCNC(=O)C[C@@H]2N=C(c3ccc(Cl)cc3)c3c(sc(C)c3C)-n3c(C)nnc32)C(C)(C)C)cc1 [MZ1]
- Kd (MIC2): 0.12 nM
- koff (MIC2): NM/1.30E−04 1/s
- kon (MIC2): NM/1.10E+06 1/Ms
- Kd (MIC1): 4.9 nM

Molecule: CD33 Ab: parental CD33-binding antibody (gemtuzumab CDRs, IgG4) without VHH
- AUC0-inf [1]: 219000 µg·h/mL
- Cl [1]: 3.36 mL/day/kg
- Cmax [1]: 810 µg/mL
- Vss [1]: 0.0742 L/kg
- t½ [1]: 237.0 h
